# Patent US12258327B2, “5-membered heteroaryl-containing aminopyridine compounds as EGFR inhibitors” (YUHAN CORPORATION, priority 2021, dated 2025)
# Read-outs that look alike come from different tables or passages of the source.
# Columns and labels:
# EGFR wildtype (WT) = EGFR wildtype (WT) (Homo sapiens, UniProt P00533); assay: Biochemical EGFR kinase assay (Lance Ultra TR-FRET), wildtype
# How it was run: (§1)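 Step 1: compound in kinase buffer, 0.003–10 μM. Step 2: kinase reaction 1 h at room temperature. Step 4: TR-FRET read at 615/665 nm; IC50 calculated.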
# EGFR L858R/C797S = EGFR L858R/C797S (Homo sapiens, UniProt P00533, C797S/L858R); assay: Biochemical EGFR kinase assay (Lance Ultra TR-FRET), double mutant L858R/C797S
# How it was run: as §1
# EGFR L858R/T790M/C797S = EGFR L858R/T790M/C797S (Homo sapiens, UniProt P00533, C797S/L858R/T790M); assay: Biochemical EGFR kinase assay (Lance Ultra TR-FRET), triple mutant L858R/T790M/C797S
# How it was run: as §1
# EGFR del19/T790M/C797S = EGFR del19/T790M/C797S (Homo sapiens, UniProt P00533, C797S/DEL746-750/T790M); assay: Biochemical EGFR kinase assay (Lance Ultra TR-FRET), triple mutant del19/T790M/C797S
# How it was run: as §1
# EGFR del19/C797S = EGFR del19/C797S (Homo sapiens, UniProt P00533, C797S/DEL746-750); assay: Biochemical EGFR kinase assay (Lance Ultra TR-FRET), double mutant del19/C797S
# How it was run: as §1
# [1] = Km ATP, read-out: IC50 WT (nM) Km ATP
# [2] = Km ATP, read-out: IC50 L858R/C797S (nM) Km ATP
# [3] = Km ATP, read-out: IC50 L858R/T790M/C797S (nM) Km ATP
# [4] = Km ATP, read-out: IC50 del19/T790M/C797S (nM) Km ATP
# [5] = Km ATP, read-out: IC50 del19/C797S (nM) Km ATP
# [6] = IC50 WT (nM) 100 μM ATP, 100 μM ATP
# [7] = IC50 L858R/C797S (nM) 100 μM ATP, 100 μM ATP
# [8] = IC50 L858R/T790M/C797S (nM) 100 μM ATP, 100 μM ATP
# [9] = IC50 del19/T790M/C797S (nM) 100 μM ATP, 100 μM ATP
# [10] = IC50 del19/C797S (nM) 100 μM ATP, 100 μM ATP
# [11] = Km ATP, read-out: IC50 WT, Km ATP
# [12] = Km ATP, read-out: IC50 L858R/C797S, Km ATP
# [13] = IC50 L858R/T790M/C797S, 100 μM ATP
# [14] = Km ATP, read-out: IC50 L858R/T790M/C797S, Km ATP
# [15] = IC50 del19/T790M/C797S, 100 μM ATP
# [16] = Km ATP, read-out: IC50 del19/T790M/C797S, Km ATP
# [17] = Km ATP, read-out: IC50 del19/C797S, Km ATP
# Chain of EGFR del19/C797S (P00533 with tags, fused parts or gaps DEL746-750/C797S): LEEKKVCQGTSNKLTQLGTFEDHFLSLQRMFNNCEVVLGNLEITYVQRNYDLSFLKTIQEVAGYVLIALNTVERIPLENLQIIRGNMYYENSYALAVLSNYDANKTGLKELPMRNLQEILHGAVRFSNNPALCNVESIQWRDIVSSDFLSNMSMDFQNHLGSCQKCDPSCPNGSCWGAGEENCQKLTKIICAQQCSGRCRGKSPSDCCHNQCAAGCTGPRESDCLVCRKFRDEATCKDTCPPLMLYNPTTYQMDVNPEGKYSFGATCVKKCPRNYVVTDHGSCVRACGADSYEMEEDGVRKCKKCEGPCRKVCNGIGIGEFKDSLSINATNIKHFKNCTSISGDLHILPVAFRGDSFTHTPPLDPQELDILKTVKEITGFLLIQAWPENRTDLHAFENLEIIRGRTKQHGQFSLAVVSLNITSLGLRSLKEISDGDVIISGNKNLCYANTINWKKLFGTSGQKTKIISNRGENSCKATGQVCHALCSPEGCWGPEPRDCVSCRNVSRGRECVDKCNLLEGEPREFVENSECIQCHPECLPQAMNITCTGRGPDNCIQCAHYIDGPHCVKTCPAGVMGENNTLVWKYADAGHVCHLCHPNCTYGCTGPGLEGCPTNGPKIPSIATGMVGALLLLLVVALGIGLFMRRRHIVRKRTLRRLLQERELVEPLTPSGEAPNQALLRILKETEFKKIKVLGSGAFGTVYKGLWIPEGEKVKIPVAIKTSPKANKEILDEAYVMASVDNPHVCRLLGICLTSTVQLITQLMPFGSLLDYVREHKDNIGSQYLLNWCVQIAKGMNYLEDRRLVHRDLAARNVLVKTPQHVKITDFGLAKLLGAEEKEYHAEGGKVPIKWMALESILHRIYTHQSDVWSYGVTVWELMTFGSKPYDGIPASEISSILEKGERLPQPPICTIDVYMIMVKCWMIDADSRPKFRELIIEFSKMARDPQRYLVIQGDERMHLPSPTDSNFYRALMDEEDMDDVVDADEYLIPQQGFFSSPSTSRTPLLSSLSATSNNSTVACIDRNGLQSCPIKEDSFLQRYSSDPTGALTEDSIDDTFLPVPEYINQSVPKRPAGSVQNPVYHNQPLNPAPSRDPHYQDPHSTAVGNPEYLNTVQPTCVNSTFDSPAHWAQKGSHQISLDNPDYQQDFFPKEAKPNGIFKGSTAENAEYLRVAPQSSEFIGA
# Chain of EGFR L858R/T790M/C797S (P00533 25-1210 T790M/C797S/L858R): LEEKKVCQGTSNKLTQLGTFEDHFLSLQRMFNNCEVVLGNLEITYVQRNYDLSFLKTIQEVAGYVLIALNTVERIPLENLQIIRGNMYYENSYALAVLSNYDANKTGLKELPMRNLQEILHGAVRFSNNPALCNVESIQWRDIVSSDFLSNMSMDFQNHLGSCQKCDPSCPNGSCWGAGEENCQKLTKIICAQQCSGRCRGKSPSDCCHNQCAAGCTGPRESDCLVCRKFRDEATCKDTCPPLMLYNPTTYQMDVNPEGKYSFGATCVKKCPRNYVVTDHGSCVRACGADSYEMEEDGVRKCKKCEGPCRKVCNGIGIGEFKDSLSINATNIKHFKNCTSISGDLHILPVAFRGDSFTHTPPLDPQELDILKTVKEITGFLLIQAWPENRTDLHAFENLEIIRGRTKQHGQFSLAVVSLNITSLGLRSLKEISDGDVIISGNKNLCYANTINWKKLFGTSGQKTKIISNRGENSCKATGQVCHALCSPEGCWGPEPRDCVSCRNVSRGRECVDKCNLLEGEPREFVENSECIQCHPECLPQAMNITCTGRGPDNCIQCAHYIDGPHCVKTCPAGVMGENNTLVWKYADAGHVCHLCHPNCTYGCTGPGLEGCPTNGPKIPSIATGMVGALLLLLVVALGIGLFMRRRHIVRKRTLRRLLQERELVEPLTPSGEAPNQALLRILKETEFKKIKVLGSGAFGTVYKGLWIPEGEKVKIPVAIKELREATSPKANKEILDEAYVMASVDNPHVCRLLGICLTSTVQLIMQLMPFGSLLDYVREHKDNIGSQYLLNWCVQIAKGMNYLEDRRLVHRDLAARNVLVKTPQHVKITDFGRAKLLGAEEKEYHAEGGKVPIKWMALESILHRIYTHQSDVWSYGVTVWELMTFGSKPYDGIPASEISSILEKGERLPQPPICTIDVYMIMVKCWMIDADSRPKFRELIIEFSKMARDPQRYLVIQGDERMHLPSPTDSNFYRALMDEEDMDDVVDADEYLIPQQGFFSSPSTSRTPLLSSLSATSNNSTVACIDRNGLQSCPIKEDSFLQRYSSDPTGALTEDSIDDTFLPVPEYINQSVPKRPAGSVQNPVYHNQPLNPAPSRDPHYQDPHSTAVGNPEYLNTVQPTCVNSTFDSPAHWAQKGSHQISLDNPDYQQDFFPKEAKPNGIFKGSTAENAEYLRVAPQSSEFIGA
# Chain of EGFR wildtype (WT) (P00533 25-1210): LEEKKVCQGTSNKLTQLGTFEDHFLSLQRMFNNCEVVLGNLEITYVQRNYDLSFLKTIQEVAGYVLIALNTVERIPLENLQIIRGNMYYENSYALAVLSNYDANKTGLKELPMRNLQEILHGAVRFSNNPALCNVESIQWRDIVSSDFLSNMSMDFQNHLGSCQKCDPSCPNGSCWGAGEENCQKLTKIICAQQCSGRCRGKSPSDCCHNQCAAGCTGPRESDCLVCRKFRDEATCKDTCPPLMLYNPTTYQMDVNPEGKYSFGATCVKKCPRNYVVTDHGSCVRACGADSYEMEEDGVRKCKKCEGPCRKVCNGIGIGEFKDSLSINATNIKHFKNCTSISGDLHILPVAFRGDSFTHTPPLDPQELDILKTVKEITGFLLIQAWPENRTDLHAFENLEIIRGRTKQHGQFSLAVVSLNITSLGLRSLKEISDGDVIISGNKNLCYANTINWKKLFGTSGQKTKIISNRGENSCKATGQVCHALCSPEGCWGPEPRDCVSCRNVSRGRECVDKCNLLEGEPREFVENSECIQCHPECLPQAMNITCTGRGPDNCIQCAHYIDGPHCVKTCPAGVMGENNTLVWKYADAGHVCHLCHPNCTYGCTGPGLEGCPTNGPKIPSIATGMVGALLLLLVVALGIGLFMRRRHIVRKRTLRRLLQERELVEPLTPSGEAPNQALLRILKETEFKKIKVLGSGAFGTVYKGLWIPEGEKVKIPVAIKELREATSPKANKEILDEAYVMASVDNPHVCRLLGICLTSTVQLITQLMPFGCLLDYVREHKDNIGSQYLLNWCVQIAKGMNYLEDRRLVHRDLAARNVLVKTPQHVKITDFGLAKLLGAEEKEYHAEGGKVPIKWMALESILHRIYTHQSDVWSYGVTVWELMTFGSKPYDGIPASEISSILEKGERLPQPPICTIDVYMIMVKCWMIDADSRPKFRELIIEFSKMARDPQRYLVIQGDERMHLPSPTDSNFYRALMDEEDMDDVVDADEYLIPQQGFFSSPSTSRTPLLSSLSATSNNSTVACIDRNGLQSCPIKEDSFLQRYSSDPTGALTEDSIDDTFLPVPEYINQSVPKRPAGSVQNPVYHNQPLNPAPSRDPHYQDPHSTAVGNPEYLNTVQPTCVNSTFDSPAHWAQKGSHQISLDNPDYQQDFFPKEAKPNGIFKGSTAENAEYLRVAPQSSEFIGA
# Chain of EGFR del19/T790M/C797S (P00533 with tags, fused parts or gaps DEL746-750/T790M/C797S): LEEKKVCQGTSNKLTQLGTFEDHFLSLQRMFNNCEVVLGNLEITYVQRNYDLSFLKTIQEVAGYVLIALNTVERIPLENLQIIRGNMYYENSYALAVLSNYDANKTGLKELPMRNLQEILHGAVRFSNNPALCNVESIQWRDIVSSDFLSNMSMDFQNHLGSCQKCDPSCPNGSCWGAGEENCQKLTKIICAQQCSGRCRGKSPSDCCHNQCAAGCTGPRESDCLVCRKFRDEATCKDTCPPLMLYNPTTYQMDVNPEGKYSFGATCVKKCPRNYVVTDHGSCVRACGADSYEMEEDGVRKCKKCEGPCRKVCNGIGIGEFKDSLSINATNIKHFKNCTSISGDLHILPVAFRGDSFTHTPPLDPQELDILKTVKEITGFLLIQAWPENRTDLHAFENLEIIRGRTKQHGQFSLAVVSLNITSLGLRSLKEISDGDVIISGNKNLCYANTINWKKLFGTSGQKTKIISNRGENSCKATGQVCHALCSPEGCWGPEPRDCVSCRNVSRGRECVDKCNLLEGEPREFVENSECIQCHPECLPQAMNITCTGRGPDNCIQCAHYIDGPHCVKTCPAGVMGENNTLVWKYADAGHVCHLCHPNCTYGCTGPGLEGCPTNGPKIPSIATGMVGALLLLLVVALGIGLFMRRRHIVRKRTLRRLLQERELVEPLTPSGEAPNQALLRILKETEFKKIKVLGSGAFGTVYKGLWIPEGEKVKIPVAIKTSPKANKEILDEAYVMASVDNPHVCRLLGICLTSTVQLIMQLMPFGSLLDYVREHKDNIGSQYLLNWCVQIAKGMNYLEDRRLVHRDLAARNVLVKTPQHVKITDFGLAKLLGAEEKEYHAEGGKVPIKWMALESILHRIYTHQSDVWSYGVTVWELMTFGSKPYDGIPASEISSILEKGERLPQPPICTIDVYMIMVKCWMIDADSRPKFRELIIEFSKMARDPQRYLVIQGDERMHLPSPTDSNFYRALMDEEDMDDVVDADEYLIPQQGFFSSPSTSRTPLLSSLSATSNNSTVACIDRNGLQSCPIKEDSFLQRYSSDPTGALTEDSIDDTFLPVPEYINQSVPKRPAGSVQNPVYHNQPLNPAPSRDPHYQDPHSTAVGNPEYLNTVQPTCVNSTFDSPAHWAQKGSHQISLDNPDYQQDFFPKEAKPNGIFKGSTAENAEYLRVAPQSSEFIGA
SMILES,IC50 (EGFR wildtype (WT); [1]) [nM],IC50 (EGFR L858R/C797S; [2]) [nM],IC50 (EGFR L858R/T790M/C797S; [3]) [nM],IC50 (EGFR del19/T790M/C797S; [4]) [nM],IC50 (EGFR del19/C797S; [5]) [nM],IC50 (EGFR wildtype (WT); [6]) [nM],IC50 (EGFR L858R/C797S; [7]) [nM],IC50 (EGFR L858R/T790M/C797S; [8]) [nM],IC50 (EGFR del19/T790M/C797S; [9]) [nM],IC50 (EGFR del19/C797S; [10]) [nM],other results
"C=CCn1cc(-c2nccc(Nc3cc(N[C@H]4CC[C@@](C)(O)CC4)c(-c4ccn(C(F)F)n4)cn3)n2)cn1 [Example 116, (1s,4s)-4-((2-((2-(1-Allyl-1H-pyrazol-4-yl)pyrimidin-4-yl)amino)-5-(1-(difluoromethyl)-1H-pyrazol-3-yl)pyridin-4-yl)amino)-1-methylcyclohexan-1-ol]",77.2,5,0.7,0.6,27.6,–,–,–,–,–,–
"CC1(N)CCC(Oc2cc(Nc3ccnc(-c4cnn(S(=O)(=O)C5CC5)c4)n3)ncc2-c2cnn(C(F)F)c2)CC1 (centres unmarked) [Example 74, N-(4-((4-Amino-4-methylcyclohexyl)oxy)-5-(1-(difluoromethyl)-1H-pyrazol-4-yl)pyridin-2-yl)-2-(1-(cyclopropylsulfonyl)-1H-pyrazol-4-yl)pyrimidin-4-amine]",–,–,–,–,–,> 10000,1380,25.2,8.3,103,–
"CC1(O)CCC(Nc2cc(Nc3ccnc(N4CCC(O)C(F)(F)C4)n3)ncc2-c2ccn(C(F)F)n2)CC1 (centres unmarked) [Example 348, 1-(4-((5-(1-(Difluoromethyl)-1H-pyrazol-3-yl)-4-(((1s,4s)-4-hydroxy-4-methylcyclohexyl)amino)pyridin-2-yl)amino)pyrimidin-2-yl)-3,3-difluoropiperidin-4-ol]",–,–,–,–,–,–,–,–,–,–,"IC50 (EGFR wildtype (WT); IC50 WT, 100 μM ATP): > 10000 nM; IC50 (EGFR wildtype (WT); [11]): 145 nM; IC50 (EGFR L858R/C797S; IC50 L858R/C797S, 100 μM ATP): 149 nM; IC50 (EGFR L858R/C797S; [12]): 14.6 nM; IC50 (EGFR L858R/T790M/C797S; [13]): 0.6 nM; IC50 (EGFR L858R/T790M/C797S; [14]): 0.2 nM; IC50 (EGFR del19/T790M/C797S; [15]): 3.5 nM; IC50 (EGFR del19/T790M/C797S; [16]): 0.5 nM; IC50 (EGFR del19/C797S; IC50 del19/C797S, 100 μM ATP): 134 nM; IC50 (EGFR del19/C797S; [17]): 134 nM"
"CC1(O)CCC(Oc2cc(Nc3ccnc(-c4cnn(S(=O)(=O)C5CC5)c4)n3)ncc2-c2ccn(C(F)F)n2)CC1 (centres unmarked) [Example 68, 4-((2-((2-(1-(Cyclopropylsulfonyl)-1H-pyrazol-4-yl)pyrimidin-4-yl)amino)-5-(1-(difluoromethyl)-1H-pyrazol-3-yl)pyridin-4-yl)oxy)-1-methylcyclohexan-1-ol]",95.8,6.3,0.2,0.5,7.3,> 10000,55.9,1.7,0.6,6.1,–
"O=S(=O)(C1CC1)n1cc(-c2nccc(Nc3cc(N[C@H]4CC[C@@H](CO)CC4)c(-c4ccn(C(F)F)n4)cn3)n2)cn1 [Example 18, ((1s,4s)-4-((2-((2-(1-(Cyclopropylsulfonyl)-1H-pyrazol-4-yl)pyrimidin-4-yl)amino)-5-(1-(difluoromethyl)-1H-pyrazol-3-yl)pyridin-4-yl)amino)cyclohexyl)methanol]",3,1.9,0.2,0.3,0.9,> 10000,13,0.6,0.4,1.4,–
"Cc1nn(CC(F)(F)F)cc1-c1cc(Nc2ncc(-c3ccn(C(F)F)n3)c(N[C@H]3CC[C@@](C)(O)CC3)n2)ccn1 [Example 368, (1s,4s)-4-((5-(1-(Difluoromethyl)-1H-pyrazol-3-yl)-2-((2-(3-methyl-1-(2,2,2-trifluoroethyl)-1H-pyrazol-4-yl)pyridin-4-yl)amino)pyrimidin-4-yl)amino)-1-methylcyclohexan-1-ol]",–,–,–,–,–,–,–,–,–,–,IC50 (EGFR wildtype (WT); [11]): 33.6 nM; IC50 (EGFR L858R/C797S; [12]): 10.7 nM; IC50 (EGFR L858R/T790M/C797S; [14]): 0.9 nM; IC50 (EGFR del19/T790M/C797S; [16]): 1.9 nM; IC50 (EGFR del19/C797S; [17]): 12.6 nM
"CC(C)n1ccc(-c2cnc(Nc3ccnc(-c4cnn(S(=O)(=O)C5CC5)c4)n3)cc2N[C@H]2CC[C@@H](O)CC2)n1 [Example 82, (1s,4s)-4-((2-((2-(1-(Cyclopropylsulfonyl)-1H-pyrazol-4-yl)pyrimidin-4-yl)amino)-5-(1-isopropyl-1H-pyrazol-3-yl)pyridin-4-yl)amino)cyclohexan-1-ol]",–,–,–,–,–,–,–,–,–,–,"IC50 (EGFR wildtype (WT); read-out: IC50 WT (nM) 100 μM ATP, 100 μM ATP): 2410 nM; IC50 (EGFR L858R/C797S; read-out: IC50 L858R/C797S (nM) 100 μM ATP, 100 μM ATP): 3.9 nM; IC50 (EGFR L858R/T790M/C797S; read-out: IC50 L858R/T790M/C797S (nM) 100 μM ATP, 100 μM ATP): 1.8 nM; IC50 (EGFR del19/T790M/C797S; read-out: IC50 del19/T790M/C797S (nM) 100 μM ATP, 100 μM ATP): 1.7 nM; IC50 (EGFR del19/C797S; read-out: IC50 del19/C797S (nM) 100 μM ATP, 100 μM ATP): 2.1 nM"
"Cn1nc(-c2cnc(Nc3ccnc(N4CCC(O)C(F)(F)C4)n3)cc2NC2CCC(C)(O)CC2)cc1C(F)(F)F (centres unmarked) [Example 353, 3,3-Difluoro-1-(4-((4-(((1s,4s)-4-hydroxy-4-methylcyclohexyl)amino)-5-(1-methyl-5-(trifluoromethyl)-1H-pyrazol-3-yl)pyridin-2-yl)amino)pyrimidin-2-yl)piperidin-4-ol]",–,–,–,–,–,–,–,–,–,–,"IC50 (EGFR wildtype (WT); IC50 WT, 100 μM ATP): > 10000 nM; IC50 (EGFR wildtype (WT); [11]): 175 nM; IC50 (EGFR L858R/C797S; IC50 L858R/C797S, 100 μM ATP): 275 nM; IC50 (EGFR L858R/C797S; [12]): 15.7 nM; IC50 (EGFR L858R/T790M/C797S; [13]): 0.8 nM; IC50 (EGFR L858R/T790M/C797S; [14]): 0.3 nM; IC50 (EGFR del19/T790M/C797S; [15]): 0.9 nM; IC50 (EGFR del19/T790M/C797S; [16]): 0.7 nM; IC50 (EGFR del19/C797S; IC50 del19/C797S, 100 μM ATP): 252 nM; IC50 (EGFR del19/C797S; [17]): 133 nM"
"Cn1ccc(-c2cnc(Nc3ccnc(-c4cnn(S(=O)(=O)C5CC5)c4)n3)cc2NC[C@H]2CC[C@H](O)CC2)n1 [Example 47, (1r,4r)-4-(((2-((2-(1-(Cyclopropylsulfonyl)-1H-pyrazol-4-yl)pyrimidin-4-yl)amino)-5-(1-methyl-1H-pyrazol-3-yl)pyridin-4-yl)amino)methyl)cyclohexan-1-ol]",4.5,0.8,0.1,0.6,0.5,> 10000,6.5,0.5,0.6,0.8,–

# The next lines start with results.
IC50 (EGFR wildtype (WT); [1]) [nM],IC50 (EGFR L858R/C797S; [2]) [nM],IC50 (EGFR L858R/T790M/C797S; [3]) [nM],IC50 (EGFR del19/T790M/C797S; [4]) [nM],IC50 (EGFR del19/C797S; [5]) [nM],IC50 (EGFR wildtype (WT); [6]) [nM],IC50 (EGFR L858R/C797S; [7]) [nM],IC50 (EGFR L858R/T790M/C797S; [8]) [nM],IC50 (EGFR del19/T790M/C797S; [9]) [nM],IC50 (EGFR del19/C797S; [10]) [nM],SMILES,other results
1.2,0.3,0.1,0.2,0.6,–,–,–,–,–,"CN(C)CC[C@H]1CC[C@@H](Nc2cc(Nc3nc(-c4cnn(S(=O)(=O)C5CC5)c4)ncc3F)ncc2-c2ccn(C(F)F)n2)CC1 [Example 325, N^2-(2-(1-(Cyclopropylsulfonyl)-1H-pyrazol-4-yl)-5-fluoropyrimidin-4-yl)-5-(1-(difluoromethyl)-1H-pyrazol-3-yl)-N^4-((1s,4s)-4-(2-(dimethylamino)ethyl)cyclohexyl)pyridine-2,4-diamine]",–
2850,15.4,0.4,0.6,13.5,> 10000,293,2.1,1,–,"O=S(=O)(C1CC1)n1cc(-c2nccc(Nc3cc(N[C@H]4CC[C@](O)(C(F)F)CC4)c(-c4ccn(C(F)F)n4)cn3)n2)cn1 [Example 200, (1s,4s)-4-((2-((2-(1-(Cyclopropylsulfonyl)-1H-pyrazol-4-yl)pyrimidin-4-yl)amino)-5-(1-(difluoromethyl)-1H-pyrazol-3-yl)pyridin-4-yl)amino)-1-(difluoromethyl)cyclohexan-1-ol]",–
595,75.2,0.5,1.9,133,> 10000,1480,1.9,5.2,300,"CC1(O)CCC(Nc2cc(Nc3ccnc(-c4cnn(C5CCCCO5)c4)n3)ncc2-c2ccn(C(F)F)n2)CC1 (centres unmarked) [Example 314, (1s,4s)-4-((5-(1-(Difluoromethyl)-1H-pyrazol-3-yl)-2-((2-(1-(tetrahydro-2H-pyran-2-yl)-1H-pyrazol-4-yl)pyrimidin-4-yl)amino)pyridin-4-yl)amino)-1-methylcyclohexan-1-ol]",–
377,16.2,0.2,0.3,128,–,–,–,–,–,"C[C@]1(O)CC[C@@H](Nc2cc(Nc3ccnc(-c4cnc5c(c4)NCCO5)n3)ncc2-c2ccn(C(F)F)n2)CC1 [Example 154, (1s,4s)-4-((5-(1-(Difluoromethyl)-1H-pyrazol-3-yl)-2-((2-(2,3-dihydro-1H-pyrido[2,3-b][1,4]oxazin-7-yl)pyrimidin-4-yl)amino)pyridin-4-yl)amino)-1-methylcyclohexan-1-ol]",–
0.2,0.04,0.1,0.4,0.2,–,–,–,–,–,"CN(C)CC[C@H]1CC[C@@H](Nc2cc(Nc3ccnc(-c4cnn(S(=O)(=O)C5CC5)c4)n3)ncc2-c2ccn(C)n2)CC1 [Example 240, N^2-(2-(1-(Cyclopropylsulfonyl)-1H-pyrazol-4-yl)pyrimidin-4-yl)-N^4-((1s,4s)-4-(2-(dimethylamino)ethyl)cyclohexyl)-5-(1-methyl-1H-pyrazol-3-yl)pyridine-2,4-diamine]",–
